pIC50: −log10 of the molar value.
Tests used:
Type in all cases: cell-based
MALME-3M = assay: Melanoma cytotoxicity assay (resazurin); conditions: human, 24 h
Outline: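 MALME-3M cells (~4000/well) seeded 24 h, then exposed to compound in triplicate for 24 h at 37° C, 5% CO2. Resazurin added for 6 h, fluorescence read at 544/590 nm; background-subtracted viability normalised to DMSO wells. IC50 from sigmoidal fit of serial dilutions.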

LOX IMVI = assay: Melanoma cytotoxicity assay (resazurin)
Outline: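 Growth inhibition was scored by resazurin reduction over 6 h, read by fluorescence, after cells had been treated with serially diluted compounds for 24 h. Background from medium-only wells was subtracted and signal expressed relative to DMSO controls.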

SK-MEL-5 = assay: Melanoma cytotoxicity assay (resazurin)
Outline: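 Cells are plated at roughly 4000 per well and allowed 24 h before compound addition in triplicate. After a further 24 h, resazurin is added for 6 h and fluorescence measured; percent viability is normalized to DMSO-treated wells.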

[1] = tested on: 60 different human tumor cell lines; assay: NCI Development Therapeutics Program 60 cell line screen, one dose
[2] = Non-small Cell Lung Cancer, A549/ATCC
[3] = Non-small Cell Lung Cancer, EKVX
[4] = Non-small Cell Lung Cancer, HOP-62
[5] = Non-small Cell Lung Cancer, HOP-92
[6] = Non-small Cell Lung Cancer, NCI-H23
[7] = Non-small Cell Lung Cancer, NCI-H226
[8] = Non-small Cell Lung Cancer, NCI-H322M
[9] = Non-small Cell Lung Cancer, NCI-H460

In the case of C[C@]12CC[C@H]3[C@@H](CC=C4c5sc(Nc6ccccc6)nc5CC[C@@]43C)[C@@H]1CC[C@@H]2O [IIIa.10, (1S,2R,13R,14S,17S,18S)-7-anilino-2,18-dimethyl-8-thia-6-azapentacyclo[11.7.0.02,10.05,9.014,18]icosa-5(9),6,10-trien-17-ol], the “MALME-3M (% viability)” value (MALME-3M) was 68.28%, the “LOX-IMVI (% viability)” value (LOX IMVI; human, 24 h) was 27% and the “SK-MEL-5 (% viability)” value (SK-MEL-5; human, 24 h) was 14.72%. For the same compound, the “Growth Percent” value ([1]; Breast Cancer, BT-549) was 19.16%, the “Growth Percent” value ([1]; Breast Cancer, HS 578T) was 3.65% and the “Growth Percent” value ([1]; Breast Cancer, MCF7) was 29.18%. For the same compound, the “Growth Percent” value ([1]; Breast Cancer, MDA-MB-231/ATCC) was 35.75%, the “Growth Percent” value ([1]; Breast Cancer, MDA-MB-468) was −1.00% and the “Growth Percent” value ([1]; Breast Cancer, T-47D) was 16.35%. For the same compound, the “Growth Percent” value ([1]; CNS Cancer, SF-268) was 9.68%, the “Growth Percent” value ([1]; CNS Cancer, SNB-19) was 26.54% and the “Growth Percent” value ([1]; CNS Cancer, SNB-75) was −5.43%. For the same compound, the “Growth Percent” value ([1]; CNS Cancer, U251) was −30.05%, the “Growth Percent” value ([1]; Colon Cancer, COLO 205) was 57.13% and the “Growth Percent” value ([1]; Colon Cancer, HCC-2998) was 98.16%. The “Growth Percent” value ([1]; Colon Cancer, HCT-116) was −81.48%, the “Growth Percent” value ([1]; Colon Cancer, HT29) was −38.50% and the “Growth Percent” value ([1]; Colon Cancer, KM12) was 15.64%. The “Growth Percent” value ([1]; Colon Cancer, SW-620) was −19.44%, the “Growth Percent” value ([1]; Leukemia, CCRF-CEM) was 0.74% and the “Growth Percent” value ([1]; Leukemia, HL-60(TB)) was 15.69%. For the same compound, the “Growth Percent” value ([1]; Leukemia, K-562) was 4.96%, the “Growth Percent” value ([1]; Leukemia, MOLT-4) was 6.79% and the “Growth Percent” value ([1]; Leukemia, RPMI-8226) was −32.33%. For the same compound, the “Growth Percent” value ([1]; Leukemia, SR) was 8.06%, the “Growth Percent” value ([1]; Melanoma, LOX IMVI) was −81.48% and the “Growth Percent” value ([1]; Melanoma, M14) was 53.44%. The “Growth Percent” value ([1]; Melanoma, MALME-3M) was 71.16%, the “Growth Percent” value ([1]; Melanoma, MDA-MB-435) was 3.47% and the “Growth Percent” value ([1]; Melanoma, SK-MEL-2) was 51.68%. The “Growth Percent” value ([1]; Melanoma, SK-MEL-5) was 34.54%, the “Growth Percent” value ([1]; Melanoma, SK-MEL-28) was 27.28% and the “Growth Percent” value ([1]; Melanoma, UACC-62) was 39.84%. For the same compound, the “Growth Percent” value ([1]; Melanoma, UACC-257) was 69.33%, the “Growth Percent” value [1, 2] was 57.08% and the “Growth Percent” value [1, 3] was 73.21%. For the same compound, the “Growth Percent” value [1, 4] was 34.18%, the “Growth Percent” value [1, 5] was 103.92% and the “Growth Percent” value [1, 6] was 67.34%. For the same compound, the “Growth Percent” value [1, 7] was 63.92%, the “Growth Percent” value [1, 8] was 78.38% and the “Growth Percent” value [1, 9] was 6.06%. For the same compound, the “Growth Percent” value ([1]; Ovarian Cancer, IGROV1) was 11.15%, the “Growth Percent” value ([1]; Ovarian Cancer, NCI/ADR-RES) was 36.29% and the “Growth Percent” value ([1]; Ovarian Cancer, OVCAR-3) was −31.62%. For the same compound, the “Growth Percent” value ([1]; Ovarian Cancer, OVCAR-4) was 64.10%, the “Growth Percent” value ([1]; Ovarian Cancer, OVCAR-5) was 92.21% and the “Growth Percent” value ([1]; Ovarian Cancer, OVCAR-8) was −8.95%. For the same compound, the “Growth Percent” value ([1]; Ovarian Cancer, SK-OV-3) was 89.65%, the “Growth Percent” value ([1]; Prostate Cancer, DU-145) was 14.25% and the “Growth Percent” value ([1]; Prostate Cancer, PC-3) was 39.21%. For the same compound, the “Growth Percent” value ([1]; Renal Cancer, 786-0) was −49.68%, the “Growth Percent” value ([1]; Renal Cancer, ACHN) was 36.78% and the “Growth Percent” value ([1]; Renal Cancer, CAKI-1) was 49.02%. The “Growth Percent” value ([1]; Renal Cancer, RXF 393) was −32.33%, the “Growth Percent” value ([1]; Renal Cancer, SN12C) was 10.11% and the “Growth Percent” value ([1]; Renal Cancer, TK-10) was 65.01%. For the same compound, the “Growth Percent” value ([1]; Renal Cancer, UO-31) was 26.06%.

For “(1S,2R,13R,14S,18S)-7-(3-fluoroanilino)-2,18-dimethyl-6-thia-8-azapentacyclo[11.7.0.02,10.05,9.014,18]icosa-5(9),7,10-trien-17-one [IIa.8]”, the “LOX-IMVI (% inhibition)” value (LOX IMVI; LOX IMVI melanoma cells, 24 hours with compound, resazurin, concentration not given) was 79%, the pIC50 (LOX IMVI; LOX IMVI melanoma cells, 24 hours, resazurin) was less than 4.70 and the “SK-MEL-5 (% inhibition)” value (SK-MEL-5; SK-MEL-5 melanoma cells, 24 hours with compound, resazurin, concentration not given) was 84%. For the same compound, the “Growth Percent” value ([1]; Breast Cancer, BT-549) was −8.61%, the “Growth Percent” value ([1]; Breast Cancer, HS 578T) was 35.44% and the “Growth Percent” value ([1]; Breast Cancer, MCF7) was 4.46%. The “Growth Percent” value ([1]; Breast Cancer, MDA-MB-231/ATCC) was 38.20%, the “Growth Percent” value ([1]; Breast Cancer, MDA-MB-468) was −2.99% and the “Growth Percent” value ([1]; Breast Cancer, T-47D) was −0.76%. For the same compound, the “Growth Percent” value ([1]; CNS Cancer, SF-268) was 55.66%, the “Growth Percent” value ([1]; CNS Cancer, SNB-19) was 62.83% and the “Growth Percent” value ([1]; CNS Cancer, SNB-75) was 18.66%. The “Growth Percent” value ([1]; CNS Cancer, U251) was 15.66%, the “Growth Percent” value ([1]; Colon Cancer, COLO 205) was 47.59% and the “Growth Percent” value ([1]; Colon Cancer, HCC-2998) was 75.50%. For the same compound, the “Growth Percent” value ([1]; Colon Cancer, HCT-116) was −68.78%, the “Growth Percent” value ([1]; Colon Cancer, HT29) was −3.32% and the “Growth Percent” value ([1]; Colon Cancer, KM12) was 38.74%. For the same compound, the “Growth Percent” value ([1]; Colon Cancer, SW-620) was 4.62%, the “Growth Percent” value ([1]; Leukemia, CCRF-CEM) was 4.95% and the “Growth Percent” value ([1]; Leukemia, HL-60(TB)) was 8.58%. For the same compound, the “Growth Percent” value ([1]; Leukemia, K-562) was −0.51%, the “Growth Percent” value ([1]; Leukemia, MOLT-4) was −3.78% and the “Growth Percent” value ([1]; Leukemia, RPMI-8226) was −22.26%. For the same compound, the “Growth Percent” value ([1]; Leukemia, SR) was −11.87%, the “Growth Percent” value ([1]; Melanoma, LOX IMVI) was 6.22% and the “Growth Percent” value ([1]; Melanoma, M14) was 44.82%. For the same compound, the “Growth Percent” value ([1]; Melanoma, MALME-3M) was 22.82%, the “Growth Percent” value ([1]; Melanoma, MDA-MB-435) was 35.93% and the “Growth Percent” value ([1]; Melanoma, SK-MEL-2) was 21.81%. The “Growth Percent” value ([1]; Melanoma, SK-MEL-5) was 32.06%, the “Growth Percent” value ([1]; Melanoma, SK-MEL-28) was 39.44% and the “Growth Percent” value ([1]; Melanoma, UACC-62) was 37.50%. The “Growth Percent” value ([1]; Melanoma, UACC-257) was 73.04%, the “Growth Percent” value [1, 2] was 35.39% and the “Growth Percent” value [1, 3] was 46.43%. For the same compound, the “Growth Percent” value [1, 4] was 20.40%, the “Growth Percent” value [1, 5] was 68.93% and the “Growth Percent” value [1, 6] was 55.09%. For the same compound, the “Growth Percent” value [1, 7] was 71.91%, the “Growth Percent” value [1, 8] was 55.83% and the “Growth Percent” value [1, 9] was 51.98%. For the same compound, the “Growth Percent” value ([1]; Ovarian Cancer, IGROV1) was 60.02%, the “Growth Percent” value ([1]; Ovarian Cancer, NCI/ADR-RES) was 55.43% and the “Growth Percent” value ([1]; Ovarian Cancer, OVCAR-3) was −5.24%. The “Growth Percent” value ([1]; Ovarian Cancer, OVCAR-4) was 59.21%, the “Growth Percent” value ([1]; Ovarian Cancer, OVCAR-5) was 65.53% and the “Growth Percent” value ([1]; Ovarian Cancer, OVCAR-8) was 39.56%. For the same compound, the “Growth Percent” value ([1]; Ovarian Cancer, SK-OV-3) was −18.44%, the “Growth Percent” value ([1]; Prostate Cancer, DU-145) was 17.23% and the “Growth Percent” value ([1]; Renal Cancer, 786-0) was −13.93%. For the same compound, the “Growth Percent” value ([1]; Renal Cancer, A498) was 22.95%, the “Growth Percent” value ([1]; Renal Cancer, ACHN) was 1.56% and the “Growth Percent” value ([1]; Renal Cancer, CAKI-1) was 50.45%. For the same compound, the “Growth Percent” value ([1]; Renal Cancer, RXF 393) was −28.44%, the “Growth Percent” value ([1]; Renal Cancer, SN12C) was 28.50% and the “Growth Percent” value ([1]; Renal Cancer, TK-10) was 20.27%. The “Growth Percent” value ([1]; Renal Cancer, UO-31) was −26.89%.

Source: patent publication US20250296953A1, “3,4-THIAZOLO-STEROIDS AND METHODS OF MAKING AND USING THE SAME” (Arkansas State University - Jonesboro, priority 2018, published 2025)
